According to patent US20250179167A1, “IL-6 INHIBITOR AS TREATMENT FOR NEPHROPATHY” (YALE UNIVERSITY, priority 2022, published 2025):

Columns and labels:
Assay type in all cases: in vivo, mouse
control and GR^ECKO mice = test: Wnt inhibitor (LGK974) treatment in nondiabetic and diabetic control and GR^ECKO mice
Protocol: (FIG. 5A) Schematic diagram showing the treatment protocol of Wnt inhibition in diabetic control and GR^ECKO mice. (FIG. 5B) Physiological parameters including body weight, blood glucose and kidney weight/body weight were analyzed. N=6 biologically independent mice/group combined from two experiments. (FIG. 5C) Masson trichrome, Sirius red and PAS staining as well as immunohistochemical analysis of β-catenin levels in the kidneys of wnti-treated diabetic control and GR^ECKO mice. Representative images are shown; original magnification 300×. Relative area of fibrosis (%) and relative collagen deposition (%) were measured using the ImageJ program. N=8 biologically independent mice/group combined from three experiments were analyzed. Scale bar 50 μm. Data are mean SEM. For all panels one-way ANOVA with Tukey post-test was used for analysis of statistical significance. Significance—*p<0.05, **p<0.01, ***p<0.001.
Physiological parameters including body weight, blood glucose, and kidney weight/body weight are shown. n=7 biologically independent mice/group combined from two experiments were analyzed. Data are mean±SEM. One-way Anova with Tukey multiple comparison post hoc test was used to calculate statistical significance.
FIGS. 27A-27B Histological analysis of kidneys from Wnt inhibitor-treated nondiabetic control and GR^ECKO mice. (FIG. 27A) Masson trichrome staining (MITS) and Sirius red staining in Wnt inhibitor-treated nondiabetic control and GR^ECKO mice. Representative images are shown; original magnification 200×. Area of fibrosis (%) and relative collagen deposition (%) were measured using the ImageJ program. N=5 biologically independent mice/group were analyzed. Data are mean±SEM. Scale bar 50 μm. (FIG. 27B) Immunohistochemical analysis of -catenin expression in the kidneys of Wnt inhibitor-treated nondiabetic control and GR^ECKO mice. Scale bar 30 μm. n=6 biologically independent mice/group combined from two independent experiments were analyzed. Representative images are shown; original magnification 300×. One-way Anova with Tukey multiple comparison post hoc test was used to calculate statistical significance. Significance—*p<0.05, **p<0.01, ***p<0.001.
Immunohistochemical analysis of Snail1, PPAR. and HIF1. expression in the Wnti-treated and untreated control, and GR^ECKO mice. Scale bar 50 μm. n=7 biologically independent mice/group combined from three independent experiments were analyzed. Representative images are shown; original magnification 200×.
Immunofluorescence analysis of α-SMA/CD31/DAPI and E-cadherin/α-SMA/DAPI in kidneys of Wnt inhibitor-treated nondiabetic and diabetic mice. Top panel: α-SMA FITC labelled, CD31 rhodamine labelled and DAPI blue; Lower panel: E-Cadherin FITC-green labelled, α-SMA red rhodamine labelled and DAPI blue. Representative images are shown; original magnification 400×. Scale bar 50 μm. n=6 biologically independent mice/group combined from three independent experiments were analyzed. NC: non-diabetic control; DC: diabetic control; D: diabetic.
To determine whether Wnt inhibition could mitigate the renal fibrosis observed in diabetic GR^ECKO mice, a cohort of animals was treated with LGK974. At the age of 8 weeks, control and GR^ECKO mice were injected with STZ 50 mg/kg for five consecutive days. Sixteen weeks after injection, LGK974 was administered by oral gavage for eight additional weeks (FIG. 5A).
Animal Experimentation. All experiments were performed according to a protocol approved by the Institutional Animal Care and Use Committee at the Yale University School of Medicine and were in accordance with the National Institute of Health (NIH) Guidelines for the Care of Laboratory Animals Mice were housed at an ambient temperature of 68-79° F. with a humidity that ranged between 30%-70%. […]

[1] = test system: isolated endothelial cells; test: Western blot in isolated endothelial cells from Wnt inhibitor-treated diabetic mice; conditions: isolated ECs from Wnt inhibitor-treated diabetic mice
Source text: Western blot analysis of Snail1, PPARα, active-β-catenin, and HIF1α proteins in isolated endothelial cells. […] Densitometry calculations are combined from three independent experiments Data are mean±SEM. One-way Anova with Tukey multiple comparison post hoc test was used to calculate statistical significance. Significance—*p<0.05, **p<0.01, ***p<0.001. Isolation of endothelial cells. Endothelial cells from the kidneys of non-diabetic and diabetic mice were isolated using a standardized kit (Miltenyl Biotech, USA) by following the manufacturer's instructions. Briefly, kidneys were isolated and minced into small pieces. Using a series of enzymatic reactions by treating the tissue with trypsin and Collagenase type I solution, a single cell suspension was created. The pellet was dissolved with CD31 magnetic beads and the CD31-labelled cells were separated on a magnetic separator. The cells were further purified on a column. Cell number was counted by hemocytometer and cells were plated on 0.1% gelatin coated Petri dishes. Cell purity was measured by flow cytometry (BD FACSDiva) using PE-conjugated CD31 (BDB553373) (1:100) and FITC-conjugated CD45 (BDB553079) (1:100), both from Becton Dickinson (USA). Western blot. Protein lysates were boiled in sodium dodecyl sulfate (SDS) sample buffer at 94′C for 5 min. […]

ECs from CD-1 mice = test: Fatty acid uptake ([14C]palmitate uptake) in isolated kidney endothelial cells
Protocol: (FIG. 31A) Fatty acid uptake was measured as [^14C]palmitate uptake. […] [^14C]palmitate was used as substrate and CPM counts were normalized to protein. In both cases, endothelial cells isolated from n=5 biologically independent mice/group were analyzed in triplicate. Data are mean±SEM. One-way Anova with Tukey multiple comparison post hoc test was used to calculate statistical significance. Significance—*p<0.05, **p<0.01, ***p<0.001. Fatty acid uptake. Cultured isolated kidney endothelial cells were incubated with medium containing 2 μCi [^14C]-palmitate. [^14C]-palmitate uptake was measured by liquid scintillation counting.

[2] = test system: isolated kidney ECs of diabetic CD-1 mice; test: Fatty acid oxidation ([14CO2] release) in isolated kidney endothelial cells
Protocol: (FIG. 31B) Fatty acid oxidation, as represented by [^14CO2]released. [^14C]palmitate was used as substrate and CPM counts were normalized to protein. In both cases, endothelial cells isolated from n=5 biologically independent mice/group were analyzed in triplicate. Data are mean±SEM. One-way Anova with Tukey multiple comparison post hoc test was used to calculate statistical significance. Significance—*p<0.05, **p<0.01, ***p<0.001. Fatty Acid Oxidation. Cultured isolated kidney endothelial cells were incubated with medium containing 0.75 mmol/L palmitate (conjugated to 2% free fatty acid-free BSA/[^14C]palmitate at 2 μCi/mL) for 2 h. One mL of the culture medium was transferred to a sealable tube, the cap of which housed a Whatman filter paper disc. ^14CO2 trapped in the media was then released by acidification of media using 60% perchloric acid. Radioactivity that had become adsorbed onto the filter discs was then quantified by liquid scintillation counting.

db/db mice = test: Wnt inhibitor (LGK-974) treatment in db/db mice; conditions: 5 mg/kg body weight orally by gavage
Protocol: (FIG. 38A) Postprandial blood glucose measurements in the Wnt inhibitor treatments in db/db mice and untreated control db/db mice. LGK-974 (Wnt inhibitor) was treated at 5 mg/kg body weight dose orally by gavage. (FIG. 38B) GTT analysis in the Wnt inhibitor treatments in db/db mice and untreated control db/db mice. N=6 were analyzed in each group. (FIG. 38C) Area under curve (AUC) in the Wnt inhibitor treatments in db/db mice and untreated control db/db mice. N=6 were analyzed in each group. (FIG. 38D) Physiological parameters such as body weight, epididymal fat, kidney weight, liver weight and heart weight in the Wnt inhibitor treatments in db/db mice and untreated control db/db mice. N=6 were analyzed in each group. (FIG. 38E) MTS and Sirius red staining analysis in the Wnt inhibitor treatments in db/db mice and untreated control db/db mice. Representative pictures of 30× are shown. N=6 were analyzed in each group. Relative area fibrosis (RAF) and relative collagen deposition (RCD) were quantified using Image J software program. (FIG. 38F) MTS and Sirius red staining analysis in the heart sections in the Wnt inhibitor treatments in db/db mice and untreated control db/db mice. Representative pictures of 20× are shown. N=6 were analyzed in each group. […] N=6 were analyzed in each group. […]

[3] = nondiabetic control mice or nondiabetic GR^ECKO, compared to untreated nondiabetic controls

## Cc1cc(-c2ncc(CC(=O)Nc3ccc(-c4cnccn4)cn3)cc2C)ccn1 [LGK974]
Control and GR^ECKO mice; control and diabetic GR^ECKO mice
  level of EMT (E-cadherin/αSMA double positive cells): significantly reduced
Control and GR^ECKO mice; diabetic GR^ECKO and diabetic control mice
  kidney weight: significant reduction
Control and GR^ECKO mice; diabetic GR^ECKO mice
  EndMT (CD31/αSMA double positive cells): less pronounced
  relative area of fibrosis: less pronounced, though still significant
  relative collagen deposition: less pronounced, though still significant
  tubular damage: less pronounced, though still significant
Control and GR^ECKO mice; diabetic control mice
  EndMT (CD31/αSMA double positive cells): significantly suppressed
  relative area of fibrosis: clearly improved
  relative collagen deposition: clearly improved
  tubular damage: clearly improved
Control and GR^ECKO mice; kidneys of diabetic GR^ECKO
  expression of HIF1α: suppressed
  expression of Snail1: suppressed
  level of PPARα: significantly increased
Control and GR^ECKO mice; [3]
  renal fibrogenic phenotype: did not result in any remarkable change
  β-catenin level: did not result in any remarkable change
[1]
  Snail1, HIF1α and PPARα proteins: A similar effect was observed
ECs from CD-1 mice
  FA uptake ([14C]palmitate uptake): suppressed FA uptake
[2]
  level of FAO ([14CO2] release): able to restore the level of FAO
db/db mice
  fibrogenic phenotype: abolishes fibrogenic phenotype
